Consider one compound from PMC10740499, “Benzodioxane–Benzamides as FtsZ Inhibitors: Effects of Linker’s Functionalization on Gram-Positive Antimicrobial Activity” (Antibiotics, 2023).

Structures are written as SMILES. ≈ marks a conversion by molar mass, not a printed value. Where two headings read alike, the source gives them in different places.

Data set [1] concerns methicillin-sensitive S. aureus (MSSA, ATCC29213). Nature of the data set: MIC, broth dilution, MSSA ATCC 29213. The format is cell-based, Staphylococcus aureus. The settings on record: Staphylococcus aureus. From the text:
(§1) As described in our previous work, we evaluated all the compounds mentioned above on different S. aureus strains. We tested on both methicillin-sensitive S. aureus (MSSA, ATCC29213) and two clinical isolates of S. aureus showing multi-drug resistance (MDRSA). […] We analyzed the MICs and, if the antibacterial activity was promising, we also determined the percentage of cytotoxicity using the MTT assay on human MRC-5 cells and reported it as TD90. The results of antibacterial properties of all of the synthesized derivatives are shown in Table 1, and they are compared with their reference compounds FZ14, FZ88, and FZ100.
Gram-positive methicillin-sensitive Staphylococcus aureus (MSSA, ATCC 29213) was grown in Luria–Bertani broth (LB), as already described in our papers.
(§2) The detailed protocol is identical to what was previously reported. Briefly, the antimicrobial testing of compounds followed the Clinical and Laboratory Standards Institute and European Committee for Antimicrobial Susceptibility Testing guidelines. A bacterial suspension equivalent to 0.5 McFarland turbidity standard was diluted in cation-adjusted Mueller Hinton broth to prepare a fresh bacterial culture of 10^5 CFU/mL. Compounds dissolved in DMSO were combined with the bacteria and incubated for 20 h at 35 °C. MIC values were determined visually as the lowest compound dilution with no turbidity. MICs were determined against methicillin-sensitive and methicillin-resistant S. aureus strains (11.7 and 12.1). Every assay was performed in triplicate, and for each series of experiments, both positive (tetracycline) and negative (no compounds) controls were included.
For orientation: Dilution methods test growth across graded concentrations, often in twofold steps.

A further data set deals with MDRSA 12.1. Put plainly: MIC, broth dilution, MDRSA 12.1. The format is cell-based, Staphylococcus aureus. The following applies: Staphylococcus aureus, MDRSA 12.1 clinical isolate.
Source text: as §1, §2

In another data set the test system is MDRSA 11.7. Nature of the data set: MIC, broth dilution, MDRSA 11.7. The settings on record: Staphylococcus aureus, MDRSA 11.7 clinical isolate. The format is cell-based, Staphylococcus aureus.
Source text: as §1, §2

Another data set relates to human MRC-5 cells. Put plainly: MTT cytotoxicity assay. The following applies: MRC-5, MTT assay. The format is cell-based.
Source text: as §1
Normal human lung fibroblasts (MRC-5) were grown in Dulbecco’s Modified Eagle’s medium (DMEM) supplemented with 10% heat-inactivated fetal calf serum (FCS), 100 U/mL penicillin, and […] streptomycin.
Compounds showing promising antibacterial activity were serially diluted in DMEM and tested for cytotoxicity on MRC-5 cells using the MTT assay (Sigma, St Louis, MO, USA), following the same protocol we previously reported.

Data set [2] has as its system B. subtilis strain WM5126. Put plainly: Spot viability assay on solid medium. The following applies: more potent compounds, Figure 4A. The class given is cell-based, Bacillus subtilis. From the text:
(§3) We further evaluated the most promising compounds on B. subtilis, a model Gram-positive species used previously in evaluating other benzamides, including by our research group. The B. subtilis strain WM5126 expresses a xylose-inducible GFP-tagged ZapA protein. […] We first tested the effects of the compounds on colony viability on solid medium (Figure 4). […] MIC values from microdilution experiments, shown in the right column in Figure 4, largely mirrored the spot viability data.
(§4) The B. subtilis strain used was WM5126 (JH642 amyE::Pxyl-gfp-zapA). For spot viability assays on plates, compounds were diluted from DMSO stocks into molten LB agar and mixed well before solidifying. To assess viability, cells were grown until the early log phase, and then 10-fold serial dilutions of the culture in LB were spotted onto LB agar plates containing the indicated final concentration of the compounds. The plates were incubated overnight at 30 °C and photographed. Microdilution assays to obtain MICs were performed essentially as described for E. coli.

For data set [3], the system named is B. subtilis strain WM5126. Put plainly: MIC from broth microdilution. The following applies: Bacillus subtilis. The format is cell-based, Bacillus subtilis.
Source text: as §3, §4

The test system of data set [4] is FtsZ rings in live B. subtilis WM 5126 cells expressing GFP-ZapA. Nature of the data set: GFP-ZapA fluorescence microscopy of FtsZ assembly. The class given is cell-based, Bacillus subtilis. The following applies: 0.3 µg/mL (0.8 µM), 90 min. The protocol: To test if the differential effects of FZ116 and FZ117 enantiomers could be detected as FtsZ assembly changes in B. subtilis cells, we visualized GFP-ZapA patterns after growth in inhibitory concentrations of FZ116 and FZ117 (0.3 µg/mL or 0.8 µM). Cells grown with no added compound grew as typical single bacilli and short chains, with well- defined Z rings clearly visible (Figure 5, left panel, single yellow arrows). […] This conversion of FtsZ rings into a speckle pattern was observed previously, both with FZ100 [14] and with the original benzamide derivatives.
For fluorescence microscopy, overnight cultures of WM5126 were grown at 33 °C (after 1:200 dilution overnight and addition of 0.1% xylose to induce expression of GFP-ZapA) for ~2 h until reaching an OD600 of ~0.2 and then treated with no drug or with compounds FZ116 or FZ117 diluted in water to a final concentration of 0.3 µg/mL (0.8 µM) from stock solutions of 30 mg/mL in DMSO. After the addition of the compounds, the cultures were grown for 90 min while shaking at 33 °C prior to spotting on a thin layer of 1% agarose in phosphate-buffered saline. Cells were imaged with an Olympus BX100 fitted with a 100 × Plan Apochromat objective (N.A. 1.4) and a GFP filter set (Chroma). Images were acquired with CellSens Dimension version 2 software (Evident Corporation, Tokyo, Japan).

Another data set has as its system E. coli FtsZ. More on the design: method as in PMID 37634788. The following applies: in words; cited from earlier work.

A word on the MIC: it is the lowest concentration that inhibits growth of the organism.

For the compound `NC(=O)c1c(F)ccc(OC[C@H](O)[C@H]2COc3cc4c(cc3O2)CCCC4)c1F` (relative stereo) [FZ116], the minimal inhibitory concentration (MIC) in data set [1] (20 h, MSSA ATCC 29213, 20 h at 35 °C, read-out: MIC) is 4.9 µM (≈ 1.99 µg/mL); in data set [1] (read-out: MIC vs S. aureus), 4.9 µM (≈ 1.99 µg/mL); with MDRSA 12.1, 4.9 µM (≈ 1.99 µg/mL); in the data set with MDRSA 11.7, 4.9 µM (≈ 1.99 µg/mL); in data set [3], under 0.24 µg/mL; in data set [3] (value in brackets), under 0.6 µM. The compound also came in with a TD90 with human MRC-5 cells of 468.7 µM. For the same compound, in data set [2], the “colony viability on solid medium, in words” value was “killed B. subtilis at the lowest doses”. For the same compound, the “FtsZ ring / GFP-ZapA pattern” value in data set [4] is “largely disrupted”. Besides, in the data set with E. coli FtsZ, the “in vitro inhibition of E. coli FtsZ” value is “very strong”.
